Assay results as given in PMC11641365, “Evaluation of In Vitro Biological Activity of Flavanone/Chromanone Derivatives: Molecular Analysis of Anticancer Mechanisms in Colorectal Cancer” (International Journal of Molecular Sciences, 2024).

How the values were obtained:
Format in all cases: cell-based, human
[1] = system: HT-29; assay: Hydrogen peroxide level, H2DCFDA probe; settings: compound at IC50, 24 h, vs control
Protocol: Cellular H2O2 levels were assessed using 2′,7′-dichlorodihydrofluorescein diacetate (H2DCFDA, Sigma-Aldrich, St. Louis, MO, USA), a well-established fluorogenic probe for intracellular hydrogen peroxide detection. H2DCFDA readily diffuses across the cell membrane and is subsequently hydrolyzed by intracellular esterases to non-fluorescent H2DCF. Oxidation of H2DCF by ROS generates highly fluorescent 2′,7′-dichlorofluorescein (DCF), which accumulates in the cytosol. […] The fluorescence intensity of DCF is directly proportional to the concentration of ROS within the cell.
(§1) Cells were seeded in black 96-well fluorometric microplates at a density of 10 × 10^3 cells/mL. […] Following compound incubation, the medium was removed, and the cell monolayers were washed twice with HBSS (140 mM NaCl, 5 mM KCl, 0.8 mM MgCl2, 1.8 mM CaCl2, 1 mM Na2HPO4, 10 mM HEPES, and 1% glucose). A volume of 50 µL of H2DCFDA solution in HBSS (final concentration 5 μM) was added to each well, and the cells were incubated for 30 min in the dark at 37 °C. After incubation with the H2DCFDA, fluorescence measurements were conducted using a Perkin-Elmer LS-5B spectrofluorometer (MA, USA) at the following excitation and fluorescence emission wavelengths: λex = 498 nm/λem = 522 nm. The fluorescence intensity of control cells was arbitrarily assigned a value of 100%. The results were expressed as percentages of control, calculated by comparing the fluorescence intensity ratio of the test samples to controls (100%). The fluorescence of samples was denoted as Δf in relation to the control.

[2] = system: Caco-2; assay: Autophagy induction, monodansylcadaverine (MDC) fluorescence; settings: compound at IC50, 24 h, vs control
Protocol: Autophagy induction in cells treated with the tested drugs was determined by measuring Monodansylcadaverine (MDC; Sigma-Aldrich; St. Louis, MO, USA) fluorescence according to a modified method described by Vázquez. […] In the cell, MDC accumulates in lipid-rich cell membranes. It has been shown that MDC can be used as a dye for detecting autophagy, as it accumulates in autophagolysosomes as a result of interaction with membrane lipids.
Cells were seeded in black 96-well fluorometric microplates at a density of 10 × 10^3 cells/mL. […] Following compound incubation, the medium was removed, and the cell monolayers were washed twice with HBSS (140 mM NaCl, 5 mM KCl, 0.8 mM MgCl2, 1.8 mM CaCl2, 1 mM Na2HPO4, 10 mM HEPES, and 1% glucose). A solution of MDC at a final concentration of 50 μM was added to each well and incubated in a CO2 cell culture incubator at 37 °C for 15 min. After incubation with MDC, the probe was removed, and the cells were lysed with 50 μL of lysis buffer (10 mM TRIS-HCl; pH 8 containing 0.1% Triton X-100). After lysis, fluorescence was measured at an excitation wavelength of λex = 390 nm and an emission wavelength of λem = 460 nm using a Perkin-Elmer LS-5B spectrofluorometer (Waltham, MA, USA). In order to normalize the number of cells in individual samples, the amount of DNA was determined by adding 50 μL of EB (final concentration 0.2 mM) to each well after measuring the MCB fluorescence and measuring the EB fluorescence at an excitation wavelength of λex = 530 nm and an emission wavelength of λem = 590 nm. The results were calculated as the ratio of MDC fluorescence to EB fluorescence.

[3] = system: colon cancer cells; assay: Reactive nitrogen species level, DAF-FM probe, all tested cell lines; settings: any of the tested cell lines, compound at IC50, 24 h
Protocol: Diaminofluorescein-FM diacetate (DAF-FM diacetate, Invitrogen, Carlsbad, CA, USA), a cell-permeable fluorescent probe, is widely utilized for the detection and quantification of reactive nitrogen species (RNS), primarily nitric oxide (NO). […] Upon interaction with NO, however, it undergoes a chemical transformation resulting in the formation of a highly fluorescent benzotriazole derivative with excitation and emission maxima at 495 and 515 nm, respectively.
as §1, with “[…] Fluorescence” for “A volume of 50 µL of H2DCFDA solution in HBSS (final concentration 5 μM) was added to each well, and the cells were incubated for 30 min in the dark at 37 °C. After incubation with the H2DCFDA, fluorescence”, “495” for “498”, “515” for “522”

## O=C1/C(=C/c2ccccc2)COc2ccccc21 [Compound 1]
[1]
  Increase in H2O2 levels: approximately 25%
[2]
  Increase in MDC fluorescence intensity (autophagy): 25%

## COc1cccc(/C=C2/C(=O)c3ccccc3OC2c2ccccc2)c1 (centres unmarked) [Compound 3]
[3]
  Change in RNS levels: no significant changes

## O=C1/C(=C/c2ccccc2)C(c2ccccc2)Oc2ccccc21 (centres unmarked) [Compound 5]
[1]
  Increase in H2O2 levels: around 15%
[3]
  Change in RNS levels: no significant changes
